Experimental data taken from PubChem BioAssay AID328 (DTP/NCI, 2004).
Values joined by “and” are separate entries in the source; they are usually repeats but may differ in a detail not shown here. Equal values may be shown once. Toxic doses and inconclusive results are not listed. How the source made its calls: active means survival T/C of 150% or more; inactive means T/C below 125% in these data.

Tested on: BDF1 mice, P388 leukemia ip, median survival T/C
Assay: NCI In Vivo Anticancer Drug Screen. Data for tumor model P388 Leukemia (intraperitoneal) in B6D2F1 (BDF1) mice
Details: endpoint: median survival time, higher = longer survival
Summary of the method: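 Each value expresses how treatment altered survival: treated-mouse outcome over vehicle-mouse outcome, both groups bearing the transplanted tumour.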

[1] = dose: 50.0 mg/kg/injection, schedule: Q01DX009 (ip), vehicle: other
[2] = dose: 100.0 mg/kg/injection, schedule: Q01DX009 (ip), vehicle: other
[3] = dose: 200.0 mg/kg/injection, schedule: Q01DX009 (ip), vehicle: other
[4] = dose: 25.0 mg/kg/injection, schedule: Q01DX009 (ip), vehicle: saline
[5] = dose: 100.0 mg/kg/injection, schedule: Q04DX003 (ip), vehicle: saline
[6] = dose: 200.0 mg/kg/injection, schedule: Q04DX003 (ip), vehicle: saline
[7] = dose: 400.0 mg/kg/injection, schedule: Q04DX003 (ip), vehicle: saline
[8] = dose: 50.0 mg/kg/injection, schedule: Q01DX009 (ip), vehicle: saline
[9] = dose: 100.0 mg/kg/injection, schedule: Q01DX009 (ip), vehicle: saline
[10] = dose: 50.0 mg/kg/injection, schedule: Q01DX009 (ip), vehicle: saline with Tween-80
[11] = dose: 100.0 mg/kg/injection, schedule: Q01DX009 (ip), vehicle: saline with Tween-80
[12] = dose: 200.0 mg/kg/injection, schedule: Q01DX009 (ip), vehicle: saline with Tween-80

Measured: T/C

NC(=S)N/N=C\c1ncccc1OCc1cccc(N)c1
active: dose: 25.0 mg/kg/injection, schedule: Q01DX009 (ip), vehicle: other 165 % of control | [1] 150 % of control | [2] 163 % of control | [3] 182 % of control

CC1(C)N=C(N)N=C(N)N1c1cccc(OCCOc2ccc(NC(=O)CBr)cc2)c1
inactive: dose: 50.0 mg/kg/injection, schedule: Q01DX009 (ip), vehicle: saline sonified 116 % of control | dose: 100.0 mg/kg/injection, schedule: Q01DX009 (ip), vehicle: saline sonified 111 % of control

CCS/C(N)=N\N
inactive: dose: 12.5 mg/kg/injection, schedule: Q01DX009 (ip), vehicle: saline 100 % of control | [4] 104 % of control | dose: 25.0 mg/kg/injection, schedule: Q04DX003 (ip), vehicle: saline 109 % of control | dose: 50.0 mg/kg/injection, schedule: Q04DX003 (ip), vehicle: saline 104 % of control

O=c1[nH]nc(CF)c(=O)[nH]1
inactive: dose: 3.0 mg/kg/injection, schedule: Q01DX009 (ip), vehicle: saline 100 % of control and 109 % of control | dose: 6.0 mg/kg/injection, schedule: Q01DX009 (ip), vehicle: saline 118 % of control
active: dose: 12.0 mg/kg/injection, schedule: Q01DX009 (ip), vehicle: saline 150 % of control | dose: 24.0 mg/kg/injection, schedule: Q01DX009 (ip), vehicle: saline 154 % of control and 172 % of control

Cc1c(C)c(O)c2c(c1O)C(=O)C=C(Cl)C2=O
inactive: dose: 6.25 mg/kg/injection, schedule: Q04DX003 (ip), vehicle: saline with Tween-80 121 % of control | dose: 12.5 mg/kg/injection, schedule: Q04DX003 (ip), vehicle: saline with Tween-80 119 % of control and 120 % of control | dose: 25.0 mg/kg/injection, schedule: Q04DX003 (ip), vehicle: saline with Tween-80 110 % of control and 120 % of control

Cc1ncc(CO)c(CO)c1O
inactive: [5] 122 % of control | [6] 113 % of control | [7] 95 % of control

CCOCCOCCOCCCNCCCN1CC1
active: [8] 187 % of control | [5] 177 % of control | [6] 190 % of control
inactive: [9] 95 % of control

CSC(c1ccccc1)=[N+]1CCOCC1
inactive: [1] 100 % of control | dose: 50.0 mg/kg/injection, schedule: Q04DX003 (ip), vehicle: Klucel (hydroxypropylcellulose) (HPC) 100 % of control | [2] 118 % of control | dose: 100.0 mg/kg/injection, schedule: Q04DX003 (ip), vehicle: Klucel (hydroxypropylcellulose) (HPC) 100 % of control | [3] 113 % of control | dose: 200.0 mg/kg/injection, schedule: Q04DX003 (ip), vehicle: Klucel (hydroxypropylcellulose) (HPC) 90 % of control

Cc1cc2[nH]c(=O)c(=O)[nH]c2cc1C
inactive: dose: 10.0 mg/kg/injection, schedule: Q01DX009 (ip), vehicle: Klucel (hydroxypropylcellulose) (HPC) 109 % of control | dose: 20.0 mg/kg/injection, schedule: Q01DX009 (ip), vehicle: Klucel (hydroxypropylcellulose) (HPC) 109 % of control | dose: 40.0 mg/kg/injection, schedule: Q01DX009 (ip), vehicle: Klucel (hydroxypropylcellulose) (HPC) 100 % of control | dose: 75.0 mg/kg/injection, schedule: Q01DX009 (ip), vehicle: Klucel (hydroxypropylcellulose) (HPC) 86 % of control

S=c1cc(-c2ccc(Cl)cc2)ss1
inactive: [4] 123 % of control | [8] 101 % of control | [9] 107 % of control | [5] 107 % of control | dose: 200.0 mg/kg/injection, schedule: Q01DX009 (ip), vehicle: saline 107 % of control | [6] 110 % of control | dose: 400.0 mg/kg/injection, schedule: Q01DX009 (ip), vehicle: saline 123 % of control | [7] 100 % of control

COCCn1c2c(nc(C(=O)OC)/c1=N\C(=O)Nc1ccccc1)CCCC2
inactive: [10] 109 % of control | [11] 106 % of control | [12] 106 % of control

COC(=O)C(CSCSC)NC(=O)/C=C/c1ccccc1C (configuration not stated)
inactive: [10] 101 % of control | [11] 98 % of control | dose: 100.0 mg/kg/injection, schedule: Q04DX003 (ip), vehicle: saline with Tween-80 104 % of control | [12] 101 % of control | dose: 200.0 mg/kg/injection, schedule: Q04DX003 (ip), vehicle: saline with Tween-80 91 % of control | dose: 400.0 mg/kg/injection, schedule: Q01DX009 (ip), vehicle: saline with Tween-80 114 % of control | dose: 400.0 mg/kg/injection, schedule: Q04DX003 (ip), vehicle: saline with Tween-80 104 % of control
